Experimental data taken from US20230085307A1, “PYRIDAZINONE COMPOUND AND HERBICIDE” (NISSAN CHEMICAL CORPORATION, priority 2019, published 2023).

Key:
windgrass = assay: Test Example 5: herbicidal effect by foliage application, plastic box (Table 20, symbol L); type: in vivo, windgrass (Apera spica-venti); details: foliage application, 320 g/ha, evaluated three weeks after application
Procedure, shortened: (§1)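 Plants were sown into sterilized diluvial soil under about 1.5 cm cover and kept in a greenhouse at 25° C. to 30° C. Fourteen days on, foliage received an even spray of the diluted emulsion. Herbicidal or crop effect was judged three weeks afterwards.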

oval-leafed pondweed [1] = assay: Test Example 2: herbicidal activity, application during weed generation under submerged conditions (Table 17, symbol C); type: in vivo, oval-leafed pondweed (Monochoria vaginalis); details: AAH 320 g/ha; application during weed generation, submerged conditions
Procedure, shortened: (§2)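 Effect on each weed is rated three weeks post-treatment, using the same scoring criteria as the preceding test. Plants grow from mixed-sown seed in flooded alluvial soil (4 cm water) at 25° C. to 30° C., and are treated at one to two leaves with diluted emulsion dropped onto the water.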

persian speedwell [2] = assay: Test Example 5: herbicidal effect by foliage application, plastic box (Table 20, symbol R); type: in vivo, Persian speedwell (Veronica persica); details: foliage application, 320 g/ha, evaluated three weeks after application
Procedure, shortened: as §1

redroot pigweed [3] = assay: Test Example 5: herbicidal effect by foliage application, plastic box (Table 20, symbol N); type: in vivo, redroot pigweed (Amaranthus retroflexus); details: foliage application, 320 g/ha, evaluated three weeks after application
Procedure, shortened: as §1

barnyard grass [4] = assay: Test Example 3: herbicidal effect by foliage application, Wagner pot (Table 18, symbol H); type: in vivo, barnyard grass (Echinochloa crus-galli); details: 320 g/ha
Procedure, shortened: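 Plants were sown in alluvial soil held under 0.1–0.5 cm standing water and grown 14 days in a greenhouse at 25–30 °C. An emulsifiable formulation, water-diluted to the set dose, was then sprayed onto the foliage, and effects were scored three weeks later using previously defined criteria.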

chickweed = assay: Test Example 5: herbicidal effect by foliage application, plastic box (Table 20, symbol P); type: in vivo, common chickweed (Stellaria media); details: foliage application, 320 g/ha, evaluated three weeks after application
Procedure, shortened: as §1

oval-leafed pondweed [5] = assay: Test Example 1: herbicidal activity, application before weed generation under submerged conditions (Table 16, symbol C); type: in vivo, oval-leafed pondweed (Monochoria vaginalis); details: 320 g/ha applied herbicide
Procedure, shortened: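 Submerged Wagner pots (alluvial soil, 4 cm water) sown with weed seeds and planted with 2.5-leaf rice seedlings; emulsifiable concentrate diluted in water applied to water surface on sowing day. Held in greenhouse at 25-30 °C; injury scored 0-5 by herbicidal rate after three weeks.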

barnyard grass [6] = assay: Test Example 4: herbicidal effect by soil treatment (Table 19, symbol H); type: in vivo, barnyard grass (Echinochloa crus-galli); details: 320 g/ha
Procedure, shortened: (§3)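 In this soil treatment, the formulated compound reached the seeds only through the soil: seeds were buried about 1.5 cm deep in sterilized diluvial soil, then the diluted emulsion was sprayed over the surface. After three weeks at 25° C. to 30° C. in a greenhouse, effects were graded on criteria from an earlier test.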

lambsquarters = assay: Test Example 5: herbicidal effect by foliage application, plastic box (Table 20, symbol O); type: in vivo, lambsquarters (Chenopodium album); details: foliage application, 320 g/ha, evaluated three weeks after application
Procedure, shortened: as §1

green foxtail = assay: Test Example 4: herbicidal effect by soil treatment (Table 19, symbol G); type: in vivo, green foxtail (Setaria viridis); details: 320 g/ha
Procedure, shortened: as §3

redroot pigweed [7] = assay: Test Example 4: herbicidal effect by soil treatment (Table 19, symbol N); type: in vivo, redroot pigweed (Amaranthus retroflexus); details: 320 g/ha
Procedure, shortened: as §3

persian speedwell [8] = assay: Test Example 4: herbicidal effect by soil treatment (Table 19, symbol R); type: in vivo, Persian speedwell (Veronica persica); details: 320 g/ha
Procedure, shortened: as §3

blackgrass = assay: Test Example 4: herbicidal effect by soil treatment (Table 19, symbol J); type: in vivo, blackgrass (Alopecurus myosuroides); details: 320 g/ha
Procedure, shortened: as §3

velvetleaf = assay: Test Example 4: herbicidal effect by soil treatment (Table 19, symbol M); type: in vivo, velvetleaf (Abutilon theophrasti); details: 320 g/ha
Procedure, shortened: as §3

Japanese bulrush = assay: Test Example 2: herbicidal activity, application during weed generation under submerged conditions (Table 17, symbol B); type: in vivo, Japanese bulrush (Schoenoplectus juncoides); details: AAH 320 g/ha; application during weed generation, submerged conditions
Procedure, shortened: as §2

southern crabgrass = assay: Test Example 5: herbicidal effect by foliage application, plastic box (Table 20, symbol F); type: in vivo, southern crabgrass (Digitaria ciliaris); details: foliage application, 320 g/ha, evaluated three weeks after application
Procedure, shortened: as §1

SMILES: CSc1ccc(-c2sc3ccc(F)cc3c2-c2c(O)c(C)nn(C)c2=O)cc1 [2-076]
- herbicidal effect on L: windgrass (windgrass): 5 (Herbicidal rate of 90% or more (almost completely withered))
- herbicidal effect rating, C: oval-leafed pondweed (oval-leafed pondweed [1]): 0 (Herbicidal rate of 5% or less (almost no effect))
- herbicidal effect on R: persian speedwell (persian speedwell [2]): 5 (Herbicidal rate of 90% or more (almost completely withered))
- herbicidal effect on N: redroot pigweed (redroot pigweed [3]): 5 (Herbicidal rate of 90% or more (almost completely withered))
- herbicidal effect on H (barnyard grass), rating 0-5 (barnyard grass [4]): 5 (Herbicidal rate of 90% or more (almost completely withered))
- herbicidal effect on P: chickweed (chickweed): 5 (Herbicidal rate of 90% or more (almost completely withered))
- Herbicidal effect on C: oval-leafed pondweed (grade 0-5) (oval-leafed pondweed [5]): 0 (Herbicidal rate of 5% or less (almost no effect))
- herbicidal effect rating, H: barnyard grass (barnyard grass [6]): 3 (Herbicidal rate of 40% or more and less than 70%)
- herbicidal effect on O: lambsquarters (lambsquarters): 5 (Herbicidal rate of 90% or more (almost completely withered))
- herbicidal effect rating, G: green foxtail (green foxtail): 4 (Herbicidal rate of 70% or more and less than 90%)
- herbicidal effect rating, N: redroot pigweed (redroot pigweed [7]): 5 (Herbicidal rate of 90% or more (almost completely withered))
- herbicidal effect rating, R: persian speedwell (persian speedwell [8]): 5 (Herbicidal rate of 90% or more (almost completely withered))
- herbicidal effect rating, J: blackgrass (blackgrass): 0 (Herbicidal rate of 5% or less (almost no effect))
- herbicidal effect rating, M: velvetleaf (velvetleaf): 2 (Herbicidal rate of 20% or more and less than 40%)
- herbicidal effect rating, B: Japanese bulrush (Japanese bulrush): 3 (Herbicidal rate of 40% or more and less than 70%)
- herbicidal effect on F: southern crabgrass (southern crabgrass): 5 (Herbicidal rate of 90% or more (almost completely withered))

SMILES: CCCC(=O)Oc1c(C)nn(C)c(=O)c1-c1c(-c2ccc(SC)cc2)sc2ccc(F)cc12 [2-077]
- herbicidal effect on L: windgrass (windgrass): 5 (Herbicidal rate of 90% or more (almost completely withered))
- herbicidal effect rating, C: oval-leafed pondweed (oval-leafed pondweed [1]): 3 (Herbicidal rate of 40% or more and less than 70%)
- herbicidal effect on R: persian speedwell (persian speedwell [2]): 5 (Herbicidal rate of 90% or more (almost completely withered))
- herbicidal effect on N: redroot pigweed (redroot pigweed [3]): 5 (Herbicidal rate of 90% or more (almost completely withered))
- herbicidal effect on H (barnyard grass), rating 0-5 (barnyard grass [4]): 5 (Herbicidal rate of 90% or more (almost completely withered))
- herbicidal effect on P: chickweed (chickweed): 5 (Herbicidal rate of 90% or more (almost completely withered))
- Herbicidal effect on C: oval-leafed pondweed (grade 0-5) (oval-leafed pondweed [5]): 5 (Herbicidal rate of 90% or more (almost completely withered))
- herbicidal effect rating, H: barnyard grass (barnyard grass [6]): 3 (Herbicidal rate of 40% or more and less than 70%)
- herbicidal effect on O: lambsquarters (lambsquarters): 5 (Herbicidal rate of 90% or more (almost completely withered))
- herbicidal effect rating, G: green foxtail (green foxtail): 4 (Herbicidal rate of 70% or more and less than 90%)
- herbicidal effect rating, N: redroot pigweed (redroot pigweed [7]): 5 (Herbicidal rate of 90% or more (almost completely withered))
- herbicidal effect rating, R: persian speedwell (persian speedwell [8]): 5 (Herbicidal rate of 90% or more (almost completely withered))
- herbicidal effect rating, J: blackgrass (blackgrass): 2 (Herbicidal rate of 20% or more and less than 40%)
- herbicidal effect rating, M: velvetleaf (velvetleaf): 3 (Herbicidal rate of 40% or more and less than 70%)
- herbicidal effect rating, B: Japanese bulrush (Japanese bulrush): 3 (Herbicidal rate of 40% or more and less than 70%)
- herbicidal effect on F: southern crabgrass (southern crabgrass): 5 (Herbicidal rate of 90% or more (almost completely withered))

SMILES: CON=C(C)c1ccc(-c2sc3ccc(F)cc3c2-c2c(O)c(C)nn(C)c2=O)cc1 [2-079]
- herbicidal effect on L: windgrass (windgrass): 5 (Herbicidal rate of 90% or more (almost completely withered))
- herbicidal effect rating, C: oval-leafed pondweed (oval-leafed pondweed [1]): 2 (Herbicidal rate of 20% or more and less than 40%)
- herbicidal effect on R: persian speedwell (persian speedwell [2]): 5 (Herbicidal rate of 90% or more (almost completely withered))
- herbicidal effect on N: redroot pigweed (redroot pigweed [3]): 5 (Herbicidal rate of 90% or more (almost completely withered))
- herbicidal effect on H (barnyard grass), rating 0-5 (barnyard grass [4]): 5 (Herbicidal rate of 90% or more (almost completely withered))
- herbicidal effect on P: chickweed (chickweed): 5 (Herbicidal rate of 90% or more (almost completely withered))
- Herbicidal effect on C: oval-leafed pondweed (grade 0-5) (oval-leafed pondweed [5]): 1 (Herbicidal rate of 5% or more and less than 20%)
- herbicidal effect rating, H: barnyard grass (barnyard grass [6]): 4 (Herbicidal rate of 70% or more and less than 90%)
- herbicidal effect on O: lambsquarters (lambsquarters): 5 (Herbicidal rate of 90% or more (almost completely withered))
- herbicidal effect rating, G: green foxtail (green foxtail): 5 (Herbicidal rate of 90% or more (almost completely withered))
- herbicidal effect rating, N: redroot pigweed (redroot pigweed [7]): 5 (Herbicidal rate of 90% or more (almost completely withered))
- herbicidal effect rating, R: persian speedwell (persian speedwell [8]): 5 (Herbicidal rate of 90% or more (almost completely withered))
- herbicidal effect rating, J: blackgrass (blackgrass): 0 (Herbicidal rate of 5% or less (almost no effect))
- herbicidal effect rating, M: velvetleaf (velvetleaf): 4 (Herbicidal rate of 70% or more and less than 90%)
- herbicidal effect rating, B: Japanese bulrush (Japanese bulrush): 0 (Herbicidal rate of 5% or less (almost no effect))
- herbicidal effect on F: southern crabgrass (southern crabgrass): 5 (Herbicidal rate of 90% or more (almost completely withered))

SMILES: CCCC(=O)Oc1c(C)nn(C)c(=O)c1-c1c(-c2ccc(C(C)=NOC)cc2)sc2ccc(F)cc12 [2-080]
- herbicidal effect on L: windgrass (windgrass): 5 (Herbicidal rate of 90% or more (almost completely withered))
- herbicidal effect rating, C: oval-leafed pondweed (oval-leafed pondweed [1]): 4 (Herbicidal rate of 70% or more and less than 90%)
- herbicidal effect on R: persian speedwell (persian speedwell [2]): 5 (Herbicidal rate of 90% or more (almost completely withered))
- herbicidal effect on N: redroot pigweed (redroot pigweed [3]): 5 (Herbicidal rate of 90% or more (almost completely withered))
- herbicidal effect on H (barnyard grass), rating 0-5 (barnyard grass [4]): 5 (Herbicidal rate of 90% or more (almost completely withered))
- herbicidal effect on P: chickweed (chickweed): 5 (Herbicidal rate of 90% or more (almost completely withered))
- Herbicidal effect on C: oval-leafed pondweed (grade 0-5) (oval-leafed pondweed [5]): 4 (Herbicidal rate of 70% or more and less than 90%)
- herbicidal effect rating, H: barnyard grass (barnyard grass [6]): 2 (Herbicidal rate of 20% or more and less than 40%)
- herbicidal effect on O: lambsquarters (lambsquarters): 5 (Herbicidal rate of 90% or more (almost completely withered))
- herbicidal effect rating, G: green foxtail (green foxtail): 1 (Herbicidal rate of 5% or more and less than 20%)
- herbicidal effect rating, N: redroot pigweed (redroot pigweed [7]): 5 (Herbicidal rate of 90% or more (almost completely withered))
- herbicidal effect rating, R: persian speedwell (persian speedwell [8]): 5 (Herbicidal rate of 90% or more (almost completely withered))
- herbicidal effect rating, J: blackgrass (blackgrass): 1 (Herbicidal rate of 5% or more and less than 20%)
- herbicidal effect rating, M: velvetleaf (velvetleaf): 5 (Herbicidal rate of 90% or more (almost completely withered))
- herbicidal effect rating, B: Japanese bulrush (Japanese bulrush): 4 (Herbicidal rate of 70% or more and less than 90%)
- herbicidal effect on F: southern crabgrass (southern crabgrass): 5 (Herbicidal rate of 90% or more (almost completely withered))
